The structures appear in SMILES notation.

The subject of data set [1] is BEAS-2B. The experiment in a line: Cytotoxicity against human BEAS-2B cells assessed as reduction in cell viability at 25 uM measured after 48 hrs by MTT assay. The format is toxicity, cell-based. For orientation: Tetrazolium dyes change colour on reduction, which living cells bring about.
Data set [2] concerns BEAS-2B. Briefly: Cytotoxicity against human BEAS-2B cells assessed as reduction in cell viability at 1.2 mM measured after 48 hrs by MTT assay. Conditions: 1200 µM. Format: toxicity, cell-based.

Take `O=c1[nH]cc(F)c(=O)[nH]1` [FLUOROURACIL]: the Activity entry in the data set on BEAS-2B [1] is recorded as “Toxic”.

In the case of `CC1=C(CC(=O)O)c2cc(F)ccc2/C1=C\c1ccc([S+](C)[O-])cc1` (configuration not stated) [SULINDAC], the Activity entry in the data set on BEAS-2B [2] is “Toxic”.

These data come from ChEMBL document CHEMBL5532691, “Anti-cancer activity and mechanism of flurbiprofen organoselenium compound RY-1-92 in non-small cell lung cancer” (RSC Med Chem, 2024).
